In patent US20240246942A1, “KINASE INHIBITORS FOR THE TREATMENT OF NEURODEGENERATIVE DISEASES” (priority 2020, published 2024):

How the values were obtained:
Assay in all cases: biochemical
[1] = target: T1, panel of 374 wild-type kinases (Homo sapiens, UniProt Q15759); conditions: read-out: % Enzyme Activity (relative to DMSO controls), P38b/MAPK11
T1 construct: purchased Reaction Biology Corporation

[2] = target: T2, panel of 374 wild-type kinases (Homo sapiens, UniProt Q13555); conditions: read-out: % Enzyme Activity (relative to DMSO controls), CAMK2g
T2 construct: purchased Reaction Biology Corporation
T2 sequence (Q13555 whole entry): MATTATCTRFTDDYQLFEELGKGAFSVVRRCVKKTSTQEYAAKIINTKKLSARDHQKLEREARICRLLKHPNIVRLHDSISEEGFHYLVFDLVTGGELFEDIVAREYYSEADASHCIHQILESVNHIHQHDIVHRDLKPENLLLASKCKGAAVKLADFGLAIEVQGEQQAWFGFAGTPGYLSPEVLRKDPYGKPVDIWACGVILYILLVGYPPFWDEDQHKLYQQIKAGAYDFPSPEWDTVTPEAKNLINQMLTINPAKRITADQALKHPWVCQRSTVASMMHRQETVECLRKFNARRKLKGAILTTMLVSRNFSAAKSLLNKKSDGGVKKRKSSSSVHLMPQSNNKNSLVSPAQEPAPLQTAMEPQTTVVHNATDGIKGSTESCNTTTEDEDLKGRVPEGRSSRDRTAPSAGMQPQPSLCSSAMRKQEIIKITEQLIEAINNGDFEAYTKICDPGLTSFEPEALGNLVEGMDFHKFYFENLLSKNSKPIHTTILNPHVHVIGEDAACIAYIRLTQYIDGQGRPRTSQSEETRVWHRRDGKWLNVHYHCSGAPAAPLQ

[3] = target: T3, panel of 374 wild-type kinases (Homo sapiens, UniProt Q9NR20); conditions: read-out: % Enzyme Activity (relative to DMSO controls), DYRK4
T3 construct: purchased Reaction Biology Corporation
T3 sequence (Q9NR20 1-520): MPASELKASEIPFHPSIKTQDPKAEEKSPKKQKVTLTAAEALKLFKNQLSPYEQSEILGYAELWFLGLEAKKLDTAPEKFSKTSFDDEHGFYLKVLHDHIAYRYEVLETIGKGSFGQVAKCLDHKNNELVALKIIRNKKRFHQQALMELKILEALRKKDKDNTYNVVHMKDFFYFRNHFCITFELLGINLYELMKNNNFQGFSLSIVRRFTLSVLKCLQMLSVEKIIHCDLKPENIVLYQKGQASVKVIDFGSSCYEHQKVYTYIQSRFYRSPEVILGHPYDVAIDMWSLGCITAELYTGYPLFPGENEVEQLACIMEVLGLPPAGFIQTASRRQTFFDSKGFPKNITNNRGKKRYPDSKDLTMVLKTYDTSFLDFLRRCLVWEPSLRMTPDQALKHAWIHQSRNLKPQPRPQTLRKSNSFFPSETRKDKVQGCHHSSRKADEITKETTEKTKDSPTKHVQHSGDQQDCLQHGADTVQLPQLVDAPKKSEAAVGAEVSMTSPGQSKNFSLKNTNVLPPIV

[4] = target: T4, panel of 374 wild-type kinases (Homo sapiens, UniProt P04629); conditions: read-out: % Enzyme Activity (relative to DMSO controls), kinase TRKA
T4 construct: purchased Reaction Biology Corporation
T4 sequence (P04629 33-796): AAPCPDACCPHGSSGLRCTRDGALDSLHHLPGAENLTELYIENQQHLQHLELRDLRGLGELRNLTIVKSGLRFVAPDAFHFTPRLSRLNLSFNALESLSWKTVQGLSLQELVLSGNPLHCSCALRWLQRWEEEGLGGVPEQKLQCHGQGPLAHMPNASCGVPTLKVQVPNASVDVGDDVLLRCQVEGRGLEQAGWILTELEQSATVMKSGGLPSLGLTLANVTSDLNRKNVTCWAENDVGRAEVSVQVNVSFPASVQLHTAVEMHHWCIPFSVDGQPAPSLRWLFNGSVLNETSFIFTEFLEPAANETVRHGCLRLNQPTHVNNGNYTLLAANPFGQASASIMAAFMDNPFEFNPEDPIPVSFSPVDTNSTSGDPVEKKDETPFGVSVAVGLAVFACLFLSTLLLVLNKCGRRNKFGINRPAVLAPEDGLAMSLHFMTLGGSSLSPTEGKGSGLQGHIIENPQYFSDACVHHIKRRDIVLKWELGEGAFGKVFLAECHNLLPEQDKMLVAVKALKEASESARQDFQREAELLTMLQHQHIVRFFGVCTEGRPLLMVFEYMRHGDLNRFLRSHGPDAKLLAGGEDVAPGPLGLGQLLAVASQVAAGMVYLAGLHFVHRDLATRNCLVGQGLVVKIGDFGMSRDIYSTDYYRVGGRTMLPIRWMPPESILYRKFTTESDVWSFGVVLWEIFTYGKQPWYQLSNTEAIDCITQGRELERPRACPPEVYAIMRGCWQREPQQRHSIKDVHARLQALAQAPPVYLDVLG

[5] = target: T5, panel of 374 wild-type kinases (Homo sapiens, UniProt P78368); conditions: read-out: % Enzyme Activity (relative to DMSO controls), CK1g2
T5 construct: purchased Reaction Biology Corporation
T5 sequence (P78368 whole entry): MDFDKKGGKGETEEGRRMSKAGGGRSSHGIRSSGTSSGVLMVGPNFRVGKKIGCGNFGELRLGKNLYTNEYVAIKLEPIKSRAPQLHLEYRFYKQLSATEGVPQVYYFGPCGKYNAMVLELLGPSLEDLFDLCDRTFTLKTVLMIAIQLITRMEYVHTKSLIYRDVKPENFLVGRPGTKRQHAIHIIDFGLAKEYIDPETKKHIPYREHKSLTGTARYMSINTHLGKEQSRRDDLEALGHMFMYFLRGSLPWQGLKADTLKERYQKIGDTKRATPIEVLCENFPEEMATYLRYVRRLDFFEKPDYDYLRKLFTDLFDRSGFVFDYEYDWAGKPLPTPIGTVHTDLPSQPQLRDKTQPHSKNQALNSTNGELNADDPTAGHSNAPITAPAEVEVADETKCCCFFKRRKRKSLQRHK

[6] = target: T6, panel of 374 wild-type kinases (Homo sapiens, UniProt O75914); conditions: read-out: % Enzyme Activity (relative to DMSO controls), kinase PAK3
T6 construct: purchased Reaction Biology Corporation
T6 sequence (O75914 whole entry): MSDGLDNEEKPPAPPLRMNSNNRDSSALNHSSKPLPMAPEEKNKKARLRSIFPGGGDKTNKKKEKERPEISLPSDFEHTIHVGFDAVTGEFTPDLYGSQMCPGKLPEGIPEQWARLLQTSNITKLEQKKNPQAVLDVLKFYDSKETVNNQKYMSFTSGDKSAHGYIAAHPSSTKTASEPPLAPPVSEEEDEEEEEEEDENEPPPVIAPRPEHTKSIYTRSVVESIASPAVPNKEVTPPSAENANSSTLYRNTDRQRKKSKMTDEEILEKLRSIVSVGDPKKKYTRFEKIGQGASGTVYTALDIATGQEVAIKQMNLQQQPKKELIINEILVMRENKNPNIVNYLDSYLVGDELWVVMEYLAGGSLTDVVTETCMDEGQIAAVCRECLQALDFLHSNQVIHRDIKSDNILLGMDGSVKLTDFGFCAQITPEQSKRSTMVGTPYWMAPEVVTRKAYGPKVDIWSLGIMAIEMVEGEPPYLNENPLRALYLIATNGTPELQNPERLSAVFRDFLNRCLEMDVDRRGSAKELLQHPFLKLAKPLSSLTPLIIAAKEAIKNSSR

[7] = target: T7, panel of 374 wild-type kinases (Homo sapiens, UniProt P21709); conditions: read-out: % Enzyme Activity (relative to DMSO controls), EPHA1
T7 construct: purchased Reaction Biology Corporation
T7 sequence (P21709 26-976): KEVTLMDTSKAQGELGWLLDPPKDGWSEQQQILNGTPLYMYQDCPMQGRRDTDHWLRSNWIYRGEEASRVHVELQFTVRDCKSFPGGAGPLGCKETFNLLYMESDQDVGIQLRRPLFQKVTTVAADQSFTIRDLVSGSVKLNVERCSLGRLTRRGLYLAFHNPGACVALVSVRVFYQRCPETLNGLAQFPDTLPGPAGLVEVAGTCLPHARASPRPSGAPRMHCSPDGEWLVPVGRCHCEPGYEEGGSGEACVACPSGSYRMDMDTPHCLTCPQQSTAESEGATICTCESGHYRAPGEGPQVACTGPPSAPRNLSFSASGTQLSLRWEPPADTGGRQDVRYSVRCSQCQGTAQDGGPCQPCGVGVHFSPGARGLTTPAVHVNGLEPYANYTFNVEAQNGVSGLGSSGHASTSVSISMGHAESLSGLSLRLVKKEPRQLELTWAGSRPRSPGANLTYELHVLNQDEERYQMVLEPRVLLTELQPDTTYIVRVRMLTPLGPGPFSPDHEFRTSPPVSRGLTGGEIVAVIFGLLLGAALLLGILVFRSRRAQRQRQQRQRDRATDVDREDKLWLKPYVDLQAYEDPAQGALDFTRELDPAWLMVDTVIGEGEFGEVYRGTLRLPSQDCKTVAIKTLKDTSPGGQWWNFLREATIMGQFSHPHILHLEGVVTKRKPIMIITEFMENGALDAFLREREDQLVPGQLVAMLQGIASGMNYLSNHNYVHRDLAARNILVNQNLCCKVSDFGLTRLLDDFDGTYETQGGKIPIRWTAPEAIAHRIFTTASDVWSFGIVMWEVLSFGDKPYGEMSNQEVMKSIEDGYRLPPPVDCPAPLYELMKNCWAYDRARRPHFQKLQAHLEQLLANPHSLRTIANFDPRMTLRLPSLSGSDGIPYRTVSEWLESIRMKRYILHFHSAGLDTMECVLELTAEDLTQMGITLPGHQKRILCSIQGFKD

[8] = target: T8, panel of 374 wild-type kinases (Homo sapiens, UniProt Q86UX6); conditions: read-out: % Enzyme Activity (relative to DMSO controls), kinase STK32C/YANK3
T8 construct: purchased Reaction Biology Corporation
T8 sequence (Q86UX6 whole entry): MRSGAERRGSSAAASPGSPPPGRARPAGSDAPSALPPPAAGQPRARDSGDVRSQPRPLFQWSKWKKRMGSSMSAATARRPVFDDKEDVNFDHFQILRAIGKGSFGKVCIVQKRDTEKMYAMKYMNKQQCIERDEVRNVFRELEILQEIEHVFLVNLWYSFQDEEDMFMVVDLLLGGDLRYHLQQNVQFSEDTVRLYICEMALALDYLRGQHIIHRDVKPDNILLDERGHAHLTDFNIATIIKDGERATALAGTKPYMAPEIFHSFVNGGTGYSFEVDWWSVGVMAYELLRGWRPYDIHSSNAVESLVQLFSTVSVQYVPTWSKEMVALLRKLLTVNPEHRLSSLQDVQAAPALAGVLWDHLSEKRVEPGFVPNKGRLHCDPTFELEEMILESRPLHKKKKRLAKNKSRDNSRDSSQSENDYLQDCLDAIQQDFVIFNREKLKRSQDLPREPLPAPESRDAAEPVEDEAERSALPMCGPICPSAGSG

[9] = target: T9, panel of 374 wild-type kinases (Homo sapiens, UniProt Q96NX5); conditions: read-out: % Enzyme Activity (relative to DMSO controls), CAMK1g
T9 construct: purchased Reaction Biology Corporation
T9 sequence (Q96NX5 whole entry): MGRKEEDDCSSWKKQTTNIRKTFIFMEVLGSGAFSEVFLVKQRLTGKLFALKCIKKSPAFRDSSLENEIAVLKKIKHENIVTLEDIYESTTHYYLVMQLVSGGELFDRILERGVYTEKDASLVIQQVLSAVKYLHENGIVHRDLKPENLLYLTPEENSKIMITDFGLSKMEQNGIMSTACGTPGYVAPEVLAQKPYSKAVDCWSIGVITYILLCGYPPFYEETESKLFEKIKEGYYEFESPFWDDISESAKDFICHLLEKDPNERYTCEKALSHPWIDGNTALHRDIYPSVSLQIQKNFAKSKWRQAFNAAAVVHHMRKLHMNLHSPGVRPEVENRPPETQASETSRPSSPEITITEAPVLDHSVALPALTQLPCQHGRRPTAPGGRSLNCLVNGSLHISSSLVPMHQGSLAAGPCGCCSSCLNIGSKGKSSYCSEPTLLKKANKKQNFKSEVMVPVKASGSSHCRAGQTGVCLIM

[10] = target: T10, panel of 374 wild-type kinases (Homo sapiens, UniProt P49137); conditions: read-out: % Enzyme Activity (relative to DMSO controls), MAPKAPK2
T10 construct: purchased Reaction Biology Corporation
T10 sequence (P49137 whole entry): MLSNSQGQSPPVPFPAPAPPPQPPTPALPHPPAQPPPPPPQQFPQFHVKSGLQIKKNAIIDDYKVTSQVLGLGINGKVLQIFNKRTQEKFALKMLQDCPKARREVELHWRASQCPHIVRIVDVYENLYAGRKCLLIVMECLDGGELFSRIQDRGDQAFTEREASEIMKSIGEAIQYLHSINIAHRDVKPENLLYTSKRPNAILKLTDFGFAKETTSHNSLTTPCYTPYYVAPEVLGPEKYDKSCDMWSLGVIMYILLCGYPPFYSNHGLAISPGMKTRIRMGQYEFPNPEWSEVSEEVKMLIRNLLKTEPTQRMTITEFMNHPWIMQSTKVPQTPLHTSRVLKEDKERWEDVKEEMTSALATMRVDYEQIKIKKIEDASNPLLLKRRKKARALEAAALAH

T1 sequence (Q15759 whole entry): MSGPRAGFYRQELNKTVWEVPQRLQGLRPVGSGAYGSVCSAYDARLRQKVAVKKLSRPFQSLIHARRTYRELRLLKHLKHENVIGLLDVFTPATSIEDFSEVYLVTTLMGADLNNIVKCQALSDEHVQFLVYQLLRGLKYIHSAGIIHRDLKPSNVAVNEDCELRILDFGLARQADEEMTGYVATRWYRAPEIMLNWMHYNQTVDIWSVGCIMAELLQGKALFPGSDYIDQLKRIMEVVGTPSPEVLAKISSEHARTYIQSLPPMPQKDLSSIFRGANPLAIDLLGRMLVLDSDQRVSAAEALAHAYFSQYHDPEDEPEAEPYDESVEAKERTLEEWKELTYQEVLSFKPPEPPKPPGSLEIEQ

Compound	remaining activity at 5 µM [1]	remaining activity at 5 µM [2]	remaining activity at 5 µM [3]	remaining activity at 5 µM [4]	remaining activity at 5 µM [5]	remaining activity at 5 µM [6]	remaining activity at 5 µM [7]	remaining activity at 5 µM [8]	remaining activity at 5 µM [9]	remaining activity at 5 µM [10]	remaining activity at 10 µM ([1]; 10 uM)	remaining activity at 10 µM ([2]; 10 uM)	remaining activity at 10 µM ([3]; 10 uM)	remaining activity at 10 µM ([4]; 10 uM)	remaining activity at 10 µM ([5]; 10 uM)	remaining activity at 10 µM ([6]; 10 uM)	remaining activity at 10 µM ([7]; 10 uM)	remaining activity at 10 µM ([8]; 10 uM)	remaining activity at 10 µM ([9]; 10 uM)	remaining activity at 10 µM ([10]; 10 uM)
O=C(Nc1cnn(-c2csc(C(=O)NC3COC3)c2)c1)Nc1ccccc1Cl [Compound 17, 4-(4-(3-(2-chlorophenyl)ureido)-1H-pyrazol-1-yl)-N-(oxetan-3-yl)thiophene-2-carboxamide]	101%	96.4%	94.6%	100%	98.5%	97.4%	99.1%	113%	94.2%	97.1%	–	–	–	–	–	–	–	–	–	–
Cc1sc(C(=O)NC2COC2)cc1-n1cc(NC(=O)Nc2c(F)cccc2Cl)cn1 [Compound 27, 4-(4-(3-(2-chloro-6-fluorophenyl)ureido)-1H-pyrazol-1-yl)-5-methyl-N-(oxetan-3-yl)thiophene-2-carboxamide]	–	–	–	–	–	–	–	–	–	–	94.3%	102%	93.7%	81%	104%	114%	88.5%	112%	93.1%	93.6%
O=C(Nc1cnn(-c2csc(C(=O)NC3COC3)c2)c1)Nc1c(F)cccc1Cl [Compound 25, 4-(4-(3-(2-chloro-6-fluorophenyl)ureido)-1H-pyrazol-1-yl)-N-(oxetan-3-yl)thiophene-2-carboxamide]	91.7%	90.1%	96.2%	87.8%	90.2%	64.2%	88.4%	90.7%	94%	99.8%	–	–	–	–	–	–	–	–	–	–
